Measurements as given in patent publication US20110217265A1, “Screening for Inhibitors of HCV Amphipathic Helix (AH) Function” (priority 2008, published 2011).

How the values were obtained:
2a HCV RNA replicon = 2a HCV RNA replicon assay (FL-J6/JFH-5'C19Rluc2AUbi, luciferase); format: cell-based, Hepatitis C Virus genotype 2a; settings: Hepatitis C virus, read-out: 2a (%) Percent of virus activity remaining in the presence of the compound
Excerpt: Plasmids. Bart79I, a high-efficiency subgenomic replicon of HCV (28), harbors the neomycin resistance gene (neo) and the HCV nonstructural proteins. The Bart-Luciferase plasmid, Bart79I-luc, was cloned from the Bart791 parent (29) and the pGL3-Basic parent (Promega). In brief, a NotI site was introduced after the 15th amino acid of Core in Bart791 using PCR mutagenesis. The plasmid pcDNA3.1-NS4B, which encodes the Con1 NS4B sequence and was used to study the protein stability of the wild type and mutant NS4Bs, was described previously. To introduce the M2 mutation into the 4BAH2 of plasmids encoding HCV replicons or NS4B, the nucleotide sequence GCG that encodes for alanine at NS4B amino acid position 51 was changed to GAG (encoding for glutamate) and the nucleotide sequence TGG that encodes for tryptophan at amino acid position 55 was changed to GAT (encoding for aspartate) through the use of Quick-ChangeTMXL site-directed mutagenesis kit (Stratagene, La Jolla, Calif.) as described by the manufacturer and confirmed by sequencing. FL-J6/JFH-5′C19Rluc2AUbi, which is a monocistronic, full-length HCV genome that expresses Renilla luciferase (Rluc) and was derived from the previously described infectious genotype 2a HCV genome J6/JFH1.
(§1) Antiviral Assays of Compounds. Subconfluent Huh7.5 cells were trypsinized and collected by centrifugation at 700 g for 5 min. The cells were then washed three times in ice-cold RNasefree PBS buffer (BioWhittaker) and resuspended at 1.5×10^7 cells·ml^−1 in PBS buffer. Wild-type FL-J6/JFH-5′C19Rluc2AUbi and Bart79I-luc RNAs for electroporation were generated by in vitro transcription of XbaI (FL-J6/JFH-5′C19Rluc2AUbi) and ScaI (Bart791-luc)-linearized DNA templates using the T7 MEGAscript kit (Ambion), followed by phenol-chloroform purification and DEPC water suspension, 5 μg of RNA were mixed with 400 μl of washed Huh7.5 cells in a 2-mm-gap cuvette (BTX) and immediately pulsed (0.82 kV (FL-J6/JFH-5′C19Rluc2AUbi) and 0.68 kV (Bart79I-luc), five […] pulses) with a BTX-830 electroporator. After 10 min recovery at 25° C., pulsed cells were diluted into 20 ml of pre-warmed growth medium. Cells from several electroporations were pooled to a common stock and seeded in 96-well plates (17,000-20,000 cells per well). After 24 hr, compounds were added to the cells and media changes were performed daily with fresh compounds. After 72 hr of treatment, cells were incubated for 2 hr at 37° C. in the presence of 10% Alamar Blue reagent (TREK Diagnostic Systems) to assess for cytotoxicity. Plates were then scanned and fluorescence was detected by using a FLEXstation II 384 (Molecular Devices). The signal was normalized relative to untreated samples. Viral RNA replication was determined using Renilla (FL-J6/JFH-5′C19Rluc2AUbi) or firefly (Bart791-luc) luciferase assays, according to the manufacturer's (Promega) directions. The same samples subjected to the viability assay described below were analyzed in this assay. According to the manufacturer protocol, cells were washed with PBS buffer and shaken at room temperature for 15 min in 20 μl of lysis buffer. Reporter assays were performed directly in the wells of the culture plates by injecting 100 μl of the assay substrate into each well. Luminescence was measured over 10 seconds with a 2-second delay using a Berthold LB 96 V luminometer. Signal was normalized relative to untreated samples or samples grown in the presence of the corresponding concentration of DMSO. Experiments were repeated three times, each time with 4 replicates.

Huh7.5 cells = test: Alamar Blue cell viability assay; format: cell-based, human
Protocol: as §1, with “Plates were then scanned and fluorescence was detected by using a FLEXstation II 384 (Molecular Devices).” left out

SMILES	activity at 5 µM (2a HCV RNA replicon) [%]	activity at 10 µM (2a HCV RNA replicon) [%]	Cell Viability (%), alamar blue (Huh7.5 cells; 5 μM) [%]	Cell Viability (%), alamar blue (Huh7.5 cells; 10 μM) [%]
CC(C)CN(C)c1nc(N)c(C(=O)NCc2ccsc2)nc1Cl.Cl [ID 148, 3-amino-6-chloro-5-(isobutyl(methyl)amino)-N-(thiophen-3-ylmethyl)pyrazine-2-carboxamide hydrochloride]	69	53	99	90
CC(C)CN(C)c1nc(N)c(C(=O)NCc2nccs2)nc1Cl.Cl [ID 149, 3-amino-6-chloro-5-(isobutyl(methyl)amino)-N-(thiazol-2-ylmethyl)pyrazine-2-carboxamide hydrochloride]	68	50	>100	>100
CC(C)CN(C)c1nc(N)c(C(=O)NCc2cccs2)nc1Cl [ID 150, 3-amino-6-chloro-5-(isobutyl(methyl)amino)-N-(thiophen-2-ylmethyl)pyrazine-2-carboxamide 2,2,2-trifluoroacetate]	65	48	>100	77
CC(C)CN(C)c1nc(N)c(C(=O)Nc2ccon2)nc1Cl.Cl [ID 200, 3-amino-6-chloro-5-(isobutyl(methyl)amino)-N-(isoxazol-3-yl)pyrazine-2-carboxamide hydrochloride]	77	65	96	96
CC(C)CN(C)c1nc(N)c(C(=O)Nc2ccccn2)nc1Cl.Cl [ID 201, 3-amino-6-chloro-5-(isobutyl(methyl)amino)-N-(pyridin-2-yl)pyrazine-2-carboxamide hydrochloride]	74	48	>100	92
CC(C)CN(C)c1nc(N)c(C(=O)Nc2ccncc2)nc1Cl.Cl [ID 203, 3-amino-6-chloro-5-(isobutyl(methyl)amino)-N-(pyridin-4-yl)pyrazine-2-carboxamide hydrochloride]	68	59	92	90
CC(C)CN(C)c1nc(N)c(C(=O)NCc2ccccn2)nc1Cl.Cl [ID 204, 3-amino-6-chloro-5-(isobutyl(methyl)amino)-N-(pyridin-2-ylmethyl)pyrazine-2-carboxamide hydrochloride]	66	60	>100	99
CC(C)CN(C)c1nc(N)c(C(=O)Nc2nncs2)nc1Cl.Cl [ID 205, 3-amino-6-chloro-5-(isobutyl(methyl)amino)-N-(1,3,4-thiadiazol-2-yl)pyrazine-2-carboxamide hydrochloride]	42	17	88	67
Cc1ccncc1NC(=O)c1nc(Cl)c(N(C)CC(C)C)nc1N.Cl [ID 235, 3-amino-6-chloro-5-(isobutyl(methyl)amino)-N-(4-methylpyridin-3-yl)pyrazine-2-carboxamide hydrochloride]	48	22	84	68
Cc1cc(NC(=O)c2nc(Cl)c(N(C)CC(C)C)nc2N)no1.Cl [ID 236, 3-amino-6-chloro-5-(isobutyl(methyl)amino)-N-(5-methylisoxazol-3-yl)pyrazine-2-carboxamide hydrochloride]	92	51	96	78
Cc1cc(NC(=O)c2nc(Cl)c(N(C)CC(C)C)nc2N)cnc1Cl [ID 291, 3-amino-6-chloro-N-(6-chloro-5-methylpyridin-3-yl)-5-(isobutyl(methyl)amino)pyrazine-2-carboxamide bis(2,2,2-trifluoroacetate)]	59	21	79	53
COc1cc(C)c(NC(=O)c2nc(Cl)c(N(C)CC(C)C)nc2N)cn1 [ID 294, 3-amino-6-chloro-5-(isobutyl(methyl)amino)-N-(6-methoxy-4-methylpyridin-3-yl)pyrazine-2-carboxamide bis(2,2,2-trifluoroacetate)]	58	22	100	68
CC(C)CN(C)c1nc(N)c(C(=O)Nc2ccccc2)nc1Cl [ID 295, 3-amino-6-chloro-5-(isobutyl(methyl)amino)-N-phenylpyrazine-2-carboxamide]	65	47	>100	90
Cc1cncc(NC(=O)c2nc(Cl)c(N(C)CC(C)C)nc2N)c1 [ID 296, 3-amino-6-chloro-5-(isobutyl(methyl)amino)-N-(5-methylpyridin-3-yl)pyrazine-2-carboxamide bis(2,2,2-trifluoroacetate)]	52	18	100	76
Cc1cc(F)ncc1NC(=O)c1nc(Cl)c(N(C)CC(C)C)nc1N [ID 297, 3-amino-6-chloro-N-(6-fluoro-4-methylpyridin-3-yl)-5-(isobutyl(methyl)amino)pyrazine-2-carboxamide bis(2,2,2-trifluoroacetate)]	58	16	94	67
COC(=O)c1cccc(NC(=O)c2nc(Cl)c(N(C)CC(C)C)nc2N)c1.O=C(O)C(F)(F)F [ID 343, methyl 3-(3-amino-6-chloro-5-(isobutyl(methyl)amino)pyrazine-2-carboxamido)benzoate 2,2,2-trifluoroacetate]	65	38	98	93
